Assay results reported in patent publication US12453778B2, “Incremental dose finding in controlled-release PTH compounds” (Ascendis Pharma Bone Diseases A/S, priority 2016, dated 2025).
Like-named read-outs stand apart in the source and are kept apart here.

Tests used:
[1] = pump delivery, over 6-months; cited from earlier work
[2] = cited from earlier work; for osteosarcoma rate: rats, daily injections
[3] = cited from earlier work
[4] = 6-year follow-up; cited from earlier work
[5] = Dose range finding / dose adjustment study with daily subcutaneous injections of TransCon PTH; design: time of peak calcium concentration postdose / increases in calcium to pre-study levels / calcium increases: dose or concentration left out as unconfirmed; conditions: for sCa compared to pre-study levels: severe hypercalcaemic levels
Experimental: Dose Range Finding Study—Dose Adjustment Study in Cynomolgus Monkeys with Daily Subcutaneous Injections with TransCon PTH
This study was conducted in order to test the hypothesis of performing dose adjustments with TransCon PTH in 25% increments in response to hypocalcemia or hypercalcemia. The study was performed in male and female Cynomolgus monkeys. Four groups with one male and one female animal in each were dosed for four weeks starting at doses 0.2, 0.5, 1.0 and 2.0 μg/kg/day, respectively. Serum calcium (sCa) levels in the animals were measured pre-dose and post-dose on days -6, 1, 3, 7, 8, 12, 14, 16, 19, 23, 26, 28 and 29.

Molecule	calcium levels [1]	osteosarcoma rate [2]	urinary calcium excretion ([3]; 2-8 hours after injection)	urinary phosphate excretion ([3]; after injection)	patients developing hypercalcemia at one or more measurements ([3]; during a 24-hour period after injection) [%]	participants achieving normal blood calcium levels on reduced doses of calcium supplements and active forms of vitamin D ([3]; once-daily subcutaneous injection, pivotal trial) [%]	urinary calcium excretion ([3]; over the 24-hour period)	BMD by DXA [4]	bone turnover markers [4]	deaths in high dose group ([2]; high dose rats, dosing discontinued, primarily from metastatic osteosarcoma)	sCa compared to pre-study levels ([5]; Day 3, female dosed at 2.0 μg/kg/day) [×]	sCa compared to pre-study levels ([5]; Day 3, male dosed at 2.0 μg/kg/day)	time of peak calcium concentration postdose ([5]; Day 23, male) [h]	increases in calcium to pre-study levels ([5]; Day 26, male and female)	calcium increases ([5]; Day 29, both sexes)	tolerability ([5]; daily subcutaneous administration at 0.2, 0.5 and 1.0 jag/kg/day for 28 days)
CC[C@H](C)[C@H](NC(=O)[C@H](CCC(=O)O)NC(=O)[C@H](CO)NC(=O)[C@@H](NC(=O)[C@@H](N)CO)C(C)C)C(=O)N[C@@H](CCC(N)=O)C(=O)N[C@@H](CC(C)C)C(=O)N[C@@H](CCSC)C(=O)N[C@@H](Cc1cnc[nH]1)C(=O)N[C@@H](CC(N)=O)C(=O)N[C@@H](CC(C)C)C(=O)NCC(=O)N[C@@H](CCCCN)C(=O)N[C@@H](Cc1cnc[nH]1)C(=O)N[C@@H](CC(C)C)C(=O)N[C@@H](CC(N)=O)C(=O)N[C@@H](CO)C(=O)N[C@@H](CCSC)C(=O)N[C@@H](CCC(=O)O)C(=O)N[C@@H](CCCN=C(N)N)C(=O)N[C@H](C(=O)N[C@@H](CCC(=O)O)C(=O)N[C@@H](Cc1c[nH]c2ccccc12)C(=O)N[C@@H](CC(C)C)C(=O)N[C@@H](CCCN=C(N)N)C(=O)N[C@@H](CCCCN)C(=O)N[C@@H](CCCCN)C(=O)N[C@@H](CC(C)C)C(=O)N[C@@H](CCC(N)=O)C(=O)N[C@@H](CC(=O)O)C(=O)N[C@H](C(=O)N[C@@H](Cc1cnc[nH]1)C(=O)N[C@@H](CC(N)=O)C(=O)N[C@@H](Cc1ccccc1)C(=O)O)C(C)C)C(C)C [PTH(1-34)]	normal, steady state calcium levels with minimal fluctuation	dose dependent increase	–	–	–	–	–	–	–	–	–	–	–	–	–	–
PTH(1-84): Natpara, PTH(1-84), approved 2015 for once-daily subcutaneous injection in hypoparathyroidism; SEQ ID NO: 1	–	dose dependent increase	reduced	increased only during the first 8 hours	71	42	did not change	increases in lumbar spine and declines in distal ⅓ radius	remained greater than pretreatment values	excessive deaths	–	–	–	–	–	–
TransCon PTH: controlled-release PTH compound administered subcutaneously to cynomolgus monkeys; not tied to a numbered conjugate	–	–	–	–	–	–	–	–	–	–	≤ 1.34	up to 1.42 ×	4	up to 1.17 ×	still present	well tolerated
